Read-outs that look alike come from different tables or passages of the source.
Legend:
[1] = target: T1, WT CYP3A4 (Homo sapiens, UniProt P08684); experiment: Equilibrium absorbance titrations of CYP3A4 with progesterone; type: binding
T1 construct: made in house

[2] = target: T2, T224A CYP3A4 (Homo sapiens, UniProt P08684, T224A); experiment: as above; type: binding
T2 construct: made in house

[3] = target: CYP3A4 (Homo sapiens, UniProt P08684); experiment: Progesterone binding to CYP3A4 (authors' estimate of Kd)
CYP3A4, sequence (P08684 whole entry): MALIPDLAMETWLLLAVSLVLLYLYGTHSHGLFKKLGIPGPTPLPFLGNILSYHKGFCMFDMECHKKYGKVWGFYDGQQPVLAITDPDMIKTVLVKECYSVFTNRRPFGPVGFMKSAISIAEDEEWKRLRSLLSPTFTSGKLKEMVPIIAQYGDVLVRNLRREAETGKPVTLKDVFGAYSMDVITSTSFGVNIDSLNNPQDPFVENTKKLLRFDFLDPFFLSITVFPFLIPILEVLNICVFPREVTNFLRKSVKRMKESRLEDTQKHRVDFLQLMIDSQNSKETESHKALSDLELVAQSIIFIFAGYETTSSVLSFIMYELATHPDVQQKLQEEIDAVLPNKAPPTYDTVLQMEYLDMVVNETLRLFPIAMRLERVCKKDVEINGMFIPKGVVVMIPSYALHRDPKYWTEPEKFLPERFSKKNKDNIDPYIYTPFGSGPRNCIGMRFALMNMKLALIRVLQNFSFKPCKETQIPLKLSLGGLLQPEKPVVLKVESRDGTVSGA
Method: Equal amounts of DMSO were added to the protein solutions to avoid buffer-related changes in fluorol emission. Fluorescence changes were monitored with λex of 455 nm and a 495 nm cutoff emission filter. […] Kinetics were analyzed using the Igor Pro software (WaveMetrics, Oswego, OR, USA).

T2 sequence (P08684 with tags, fused parts or gaps T224A): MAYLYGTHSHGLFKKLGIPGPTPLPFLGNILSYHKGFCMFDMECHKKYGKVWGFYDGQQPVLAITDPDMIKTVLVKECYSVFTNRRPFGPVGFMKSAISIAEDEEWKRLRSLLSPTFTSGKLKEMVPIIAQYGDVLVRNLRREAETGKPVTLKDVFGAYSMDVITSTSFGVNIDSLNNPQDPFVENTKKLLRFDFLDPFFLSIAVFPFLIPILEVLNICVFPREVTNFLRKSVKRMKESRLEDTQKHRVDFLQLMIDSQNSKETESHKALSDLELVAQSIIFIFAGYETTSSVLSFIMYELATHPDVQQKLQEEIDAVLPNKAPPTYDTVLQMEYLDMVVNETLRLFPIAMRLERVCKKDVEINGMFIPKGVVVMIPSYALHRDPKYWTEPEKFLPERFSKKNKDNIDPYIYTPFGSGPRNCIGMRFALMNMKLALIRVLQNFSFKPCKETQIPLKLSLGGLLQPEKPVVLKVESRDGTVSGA
T1 sequence (P08684 with tags, fused parts or gaps): as the sequence (P08684 with tags, fused parts or gaps T224A) above, with A204T counted along it

CC(=O)[C@H]1CC[C@H]2[C@@H]3CCC4=CC(=O)CC[C@]4(C)[C@H]3CC[C@]12C [progesterone]
S50 (concentration at half saturation) ([1]; 2 μM WT CYP3A4, sigmoidal fitting): 32 ± 2 µM | High-spin content in PRG-bound CYP3A4 ([1]; end of titration, WT): 71% | Hill coefficient (nH) ([2]; 2 μM T224A CYP3A4): 1.37 | S50 (concentration at half saturation) ([2]; 2 μM T224A CYP3A4, sigmoidal fitting): 25 ± 4 µM | Decrease in the high-spin content on elimination of Thr224 ([2]; PRG-bound, T224A vs WT): 9% | High-spin content in PRG-bound CYP3A4 ([2]; end of titration, T224A): 62% | Kd ([3]; human): 45 µM | Kd ([3]; our estimate, read-out: Kd, high-affinity site): 5 µM

Reference: article PMC9604483, “Crystal Structure of CYP3A4 Complexed with Fluorol Identifies the Substrate Access Channel as a High-Affinity Ligand Binding Site” (International Journal of Molecular Sciences, 2022)
